In patent US9125947B2, “Phenylethanoic acid, phenylpropanoic acid and phenylpropenoic acid conjugates and prodrugs of hydrocodone, method of making and use thereof” (KemPharm, Inc., priority 2009, dated 2015):

How the values were obtained:
[1] = Intranasal PK in rats, Ibu-HC vs Adipate-HC (Example 3); details: equivalent to 2 mg/kg freebase hydrocodone
[2] = Water solubility / ability to be dosed in solution (Example 4)
[3] = Chemical stability: hydrolysis to hydrocodone in 1 N hydrochloric acid; details: 1 hour; for initial amount of conjugate hydrolyzed, 1N HCl ambient: ambient temperature (~20° C.); for initial amount of conjugate hydrolyzed, 1N HCl 100° C.: oil bath at 100° C.
[4] = Chemical stability: hydrolysis in 5% NaHCO3; format: physicochemical; details: 5% NaHCO3, one hour; for initial amount of conjugate hydrolyzed, 5% NaHCO3 ambient: ambient temperature (~20° C.); for initial amount of conjugate hydrolyzed, 5% NaHCO3 100° C.: oil bath at 100° C.
[5] = Intranasal PK in rats, Ibu-HC vs Hydrocodone BT (Example 6); format: in vivo
Description: The intranasal profiles of Ibu-HC were compared to the unconjugated drug Hydrocodone•BT by administering to rats intranasally and measuring the plasma concentration of hydrocodone or hydromorphone over time.

[6] = Oral PK in rats, Ibu-HC and Cinnamate-HC vs Hydrocodone BT (Example 5)

Structure (SMILES)	water solubility [2]	initial amount of conjugate hydrolyzed, 1N HCl ambient [3] [%]	initial amount of conjugate hydrolyzed, 1N HCl 100° C. [3] [%]	initial amount of conjugate hydrolyzed, 5% NaHCO3 ambient [4] [%]	initial amount of conjugate hydrolyzed, 5% NaHCO3 100° C. [4] [%]	other results
COc1ccc2c3c1OC1C(OC(=O)CCCCC(=O)O)=CC[C@H]4[C@@H](C2)N(C)CC[C@]314 (stereo partly shown) [Adipate-HC, reference compound]	water-soluble	13	100	3	100	hydromorphone AUC, higher than Ibu-HC ([1]; hydromorphone in plasma, relative to Ibu-HC): approximately 940%; hydrocodone AUC, higher than Ibu-HC ([1]; released hydrocodone in plasma, relative to Ibu-HC): approximately 170%
COc1ccc2c3c1OC1C(OC(=O)COCC(=O)O)=CC[C@H]4[C@@H](C2)N(C)CC[C@]314 (stereo partly shown) [Diglycolate-HC]	water-soluble	–	–	–	–	–
COc1ccc2c3c1O[C@H]1C(=O)CC[C@H]4[C@@H](C2)N(C)CC[C@]314.O=C(O)C(O)C(O)C(=O)O [Hydrocodone•BT, hydrocodone bitartrate, reference compound]	–	–	–	–	–	hydrocodone AUC, higher than Ibu-HC ([5]; hydrocodone in plasma, relative to Ibu-HC): approximately 300%
COc1ccc2c3c1OC1C(OC(=O)C(C)c4ccc(CC(C)C)cc4)=CCC4C(C2)N(C)CCC314 (stereo not shown) [Ibu-HC, ibuprofen-hydrocodone]	very low water solubility	–	–	0	22	hydrocodone plasma concentrations compared with Hydrocodone•BT [5]: significantly lower; plasma concentration of hydromorphone compared with Hydrocodone•BT [5]: very low; hydrocodone plasma concentrations compared with Adipate-HC [1]: significantly lower; plasma concentration of hydromorphone compared with Adipate-HC [1]: very low; hydrocodone and hydromorphone plasma concentrations compared with unconjugated Hydrocodone•BT ([6]; equivalent to 2 mg/kg freebase hydrocodone): similar; AUC and Cmax values (hydrocodone and hydromorphone) compared with Hydrocodone•BT ([6]; same dose based on hydrocodone freebase (2 mg/kg)): within the range of bioequivalence
COc1ccc2cc(C(C)C(=O)OC3=CCC4C5Cc6ccc(OC)c7c6C4(CCN5C)C3O7)ccc2c1 (stereo not shown) [Naproxen-HC, naproxen-hydrocodone]	–	0	33	0	8	–
